The nature of data set [1]: Drug release from AZT oleogels in lipolysis medium (simulated intestinal fluid). Format: in vitro ADME. The following applies: in vitro release over 90 minutes, trapezoidal rule, triplicates. How it is done:
Extensive in vitro release studies were conducted to understand the impact of oil, solubilizer and gelling agent on the release of AZT in simulated intestinal fluid (SIF).
Preparation of lipolysis buffer: To prepare lipolysis buffer, tris-maleate (0.474 g), calcium chloride dihydrate (0.275 g), sodium chloride (8.766 g) were weighed and distilled water was added to bring the volume to 1 L. The pH of the buffer was adjusted to pH 6.5 using 5N sodium hydroxide.
Preparation of lipolysis media: L—a phosphotidylcholine (0.576 g/l) and sodium taurodeoxycholate hydrate (1.619 g/l) were added to the lipolysis buffer. Next, the solution was stirred overnight to dissolve all ingredients.
Preparation of pancreatin solution: Three grams of pancreatin was added to 15 ml of lipolysis buffer and stirred on a magnetic stir plate for 10 minutes. The mixture was centrifuged at 28000g, at 5° C. for 10 minutes. The supernant was collected and the pH of the supernant was adjusted to pH 6.5 using 5N sodium hydroxide solution.
Preparation of negative control: To avoid the technical difficulty in material weighing, 40 mg of AZT powder was dispersed into 10 ml of methanol. It was sonicated for 1 minute to get a clear solution. One milliliter was taken into 3 separate Falcon tube and remained still to evaporate the solvent. […]

Data set [2] is described as follows: In silico pharmacokinetic modelling of AZT oleogels. The following applies: first order fit to in vitro release data.
Protocol: In vivo pharmacokinetics of the various formulations were calculated using the data obtained from in vitro release studies. To achieve this, pharmacokinetic modeling studies were conducted in two steps. In the first step, first order equations to in vitro release data were used to estimate rate constant for drug release (krel) and the extent of drug release (Agel, t=0). The rate constant of drug release was considered a measure of the speed of drug release. The extent of drug release or Agel, t=0 was a measure of the total amount of drug that could be released from the formulation at 90 min, which likely depended on the partition coefficient for AZT between the oily formulation and aqueous release medium. […] In the second step, one-compartment oral drug administration model was constructed. Using krel and Agel, t=0 as input, pharmacokinetic parameters such as maximum concentration (Cmax), time to maximum concentration (Tmax) and serum drug exposure or area under the curve (AUCfit) were determined. […]

In the case of `CC[C@H]1OC(=O)[C@H](C)[C@@H](O[C@H]2C[C@@](C)(OC)[C@@H](O)[C@H](C)O2)[C@H](C)[C@@H](O[C@@H]2O[C@H](C)C[C@H](N(C)C)[C@H]2O)[C@](C)(O)C[C@@H](C)CN(C)[C@H](C)[C@@H](O)[C@]1(C)O` [Control, azithromycin], the “Average AUC” value in data set [1] is 127.23 µg·h/mL. The same compound came in with an average krel in data set [2] of 5.28 h⁻¹. The “Average Agel, t=0” value in data set [2] (4.00 mg AZT put in) is 3.98 mg.
